ChEMBL document CHEMBL4834463, “Synthesis and fungicidal activity of novel 2-(2-alkylthio-6-phenylpyrimidin-4-yl)-1H-benzimidazoles” (Bioorg Med Chem Lett, 2021)
≈ marks a conversion by molar mass, not a printed value.

Legend:
[1] = test system: Botrytis cinerea; assay: Antifungal activity against Botrytis cinerea assessed as inhibition of mycelia growth incubated for 48 hrs; type: functional, organism-based
[2] = test system: Sclerotinia sclerotiorum; assay: Antifungal activity against Sclerotinia sclerotiorum assessed as inhibition of mycelia growth incubated for 48 hrs; type: functional, organism-based

| SMILES | EC50 [1] [µg/mL] | EC50 [2] [µg/mL] |
| --- | --- | --- |
| CCCCSc1nc(-c2ccc(OC)cc2)cc(-c2nc3ccccc3[nH]2)n1 | 2.45 (≈ 6.27 µM) | 16.4 (≈ 41.9 µM) |
| c1ccc(CSc2nc(-c3ccccc3)cc(-c3nc4ccccc4[nH]3)n2)cc1 | 7.02 (≈ 17.8 µM) | 8.95 (≈ 22.7 µM) |
| COc1ccc(-c2cc(-c3nc4ccccc4[nH]3)nc(SC)n2)cc1 | 0.41 (≈ 1.18 µM) | 23.5 (≈ 67.4 µM) |
| CSc1nc(-c2ccccc2)cc(-c2nc3ccccc3[nH]2)n1 | 0.15 (≈ 0.471 µM) | 45 (≈ 141 µM) |
| COc1ccc(-c2cc(-c3nc4ccccc4[nH]3)nc(SCc3ccccc3)n2)cc1 | 0.28 (≈ 0.66 µM) | 10.2 (≈ 24 µM) |
| Clc1ccc(-c2cc(-c3nc4ccccc4[nH]3)nc(SCc3ccccc3)n2)cc1 | 0.2 (≈ 0.466 µM) | 14 (≈ 32.6 µM) |
| COC(=O)Nc1nc2ccccc2[nH]1 [CARBENDAZIM] | 0.21 (≈ 1.1 µM) | 13.3 (≈ 69.7 µM) |
| CSc1nc(-c2ccc(Cl)cc2)cc(-c2nc3ccccc3[nH]2)n1 | 1.15 (≈ 3.26 µM) | 17.3 (≈ 49 µM) |
| CCCCSc1nc(-c2ccccc2)cc(-c2nc3ccccc3[nH]2)n1 | 0.34 (≈ 0.943 µM) | 22.3 (≈ 61.9 µM) |
| CCCCSc1nc(-c2ccc(F)cc2)cc(-c2nc3ccccc3[nH]2)n1 | 0.16 (≈ 0.423 µM) | 6.72 (≈ 17.8 µM) |
| CCCCSc1nc(-c2ccc(Cl)cc2)cc(-c2nc3ccccc3[nH]2)n1 | 10.1 (≈ 25.6 µM) | 20.6 (≈ 52.1 µM) |
| Fc1ccc(-c2cc(-c3nc4ccccc4[nH]3)nc(SCc3ccccc3)n2)cc1 | 0.14 (≈ 0.339 µM) | 4.65 (≈ 11.3 µM) |
| CSc1nc(-c2ccc(F)cc2)cc(-c2nc3ccccc3[nH]2)n1 | 0.95 (≈ 2.82 µM) | 16.6 (≈ 49.5 µM) |
